Experiments:
Type in all cases: cell-based
[1] = tested on: MSTO-211H cells; assay: Proliferation assay (EdU incorporation), MSTO-211H; conditions: Homo sapiens, 72 h, YAP-driven MSTO-211H (LATS1 mutation), 3 days with inhibitor, 1% serum
Description: (§1) The anti-proliferative activity of TEAD inhibitors was evaluated in cells with different properties for YAP; “YAP-driven” cells (MSTO-211H, NCI-H226) in which YAP located in the nucleus and “YAP-independent” cells (OCM1, NCI-H28) where YAP located in the cytoplasm. […] TEAD inhibitors were evaluated with cell lines with these YAP profiling and mutational status.
(§2) The next day, replace it with cell starvation medium containing 1% serum. After one day of growth in the starvation medium, the cells were incubated for 3 days with TEAD inhibitors in a concentration range of 0.01-10 μM. After 3 days, EdU (Invitrogen) at a concentration of 10 µM was added to the starvation medium and incubated for an additional 24 hours. After removing the starvation medium remaining in each well, wash the wells with PBS. Cells were fixed with 4% paraformaldehyde (Electron microscopy sciences) at room temperature for 20 minutes. After removing the fix solution remaining in each well, wash the wells with PBS and the cells were permeabilized for 40 minutes by adding 0.5% triton X-100 (Sigma Aldrich). After removing the permeabilization solution remaining in each well, the EdU labeling was performed according to the instructions of the manufacturer's instructions (Click-iT™ Cell Reaction Buffer Kit, Invitrogen). After the Click reaction for EdU labeling, nuclei were stained with […] (Thermo Scientific) for total cell count analysis. After plate preparation for detection, Image acquisition was performed using the ImageXpress Micro XLS. The acquired images were analyzed using MetaXpress software (molecular devices). Through this experimental method, it was possible to confirm the inhibitory activity of TEAD inhibitors by detection EdU incorporated into proliferating cells.
(§3) IC50 for cell proliferation inhibition activity are shown in the Table 2 below and designated within the following ranges. [+++: ≤0.1 μM, ++: >0.1 μM to ≤1 μM, +: >1 μM to ≤10μ, −: >10 μM]

[2] = tested on: NCI-H226 cells; assay: Proliferation assay (EdU incorporation), NCI-H226; conditions: Homo sapiens, 72 h, YAP-driven NCI-H226 (NF2 mutation), 3 days with inhibitor, 1% serum
Description: as §1, §2, §3

[3] = tested on: TEAD reporter-containing human breast cancer cell line MCF7; assay: TEAD reporter (luciferase) assay; conditions: TEAD reporter MCF7 cells, 24 hours treatment, 1% serum media
Procedure, shortened: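 Cells plated at 30,000/well overnight, then treated 24 h in 1% serum medium with 0.1% DMSO. CCK-8 viability read at 450 nm, then Dual-Glo luciferase luminescence; IC50 from non-linear regression of dose-response curves.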

SMILES	IC50 [2] [nM]	IC50 [3] [nM]	IC50 [1] [nM]
C=CC(=O)Nc1ccc2c(c1)c(/C=C/C1CCC(F)(F)CC1)nn2C [Compound 1, (E)-N-(3-(2-(4,4-Difluorocyclohexyl)vinyl)-1-methyl-1H-indazol-5-yl)acrylamide]	≤ 100	≤ 100	100 to 1000
C=CC(=O)Nc1ccc2c(c1)c(/C=C/c1ccc(Cl)cc1)nn2C [Compound 2, (E)-N-(3-(4-Chlorostyryl)-1-methyl-1H-indazol-5-yl)acrylamide]	≤ 100	100 to 1000	≤ 100
C=CC(=O)Nc1ccc2c(c1)c(/C=C/C1CCC(F)(F)CC1)nn2CC [Compound 3, (E)-N-(3-(2-(4,4-Difluorocyclohexyl)vinyl)-1-ethyl-1H-indazol-5-yl)acrylamide]	100 to 1000	≤ 100	≤ 100
C=CC(=O)Nc1ccc2c(c1)c(/C=C/c1ccc(Cl)cc1)nn2CC [Compound 4, (E)-N-(3-(4-Chlorostyryl)-1-ethyl-1H-indazol-5-yl)acrylamide]	≤ 100	> 10000	≤ 100
C=CC(=O)Nc1cnc2c(c1)c(/C=C/C1CCC(F)(F)CC1)cn2C [Compound 15, (E)-N-(3-(2-(4,4-Difluorocyclohexyl)vinyl)-1-methyl-1H-pyrrolo[2,3-b]pyridin-5-yl)acrylamide]	≤ 100	≤ 100	≤ 100
C=CC(=O)Nc1cnc2c(c1)c(/C=C/C1CCC(F)(F)CC1)cn2CC [Compound 17, (E)-N-(3-(2-(4,4-Difluorocyclohexyl)vinyl)-1-ethyl-1H-pyrrolo[2,3-b]pyridin-5-yl)acrylamide]	≤ 100		100 to 1000
C=CC(=O)Nc1cnc2c(c1)c(/C=C/c1ccc(Cl)cc1)cn2CC [Compound 18, (E)-N-(3-(4-Chlorostyryl)-1-ethyl-1H-pyrrolo[2,3-b]pyridin-5-yl)acrylamide]	≤ 100	1000 to 10000	≤ 100
C=CC(=O)Nc1cnc2c(c1)c(/C=C/C1CCC(F)(F)CC1)cn2C(C)C [Compound 19, (E)-N-(3-(2-(4,4-Difluorocyclohexyl)vinyl)-1-isopropyl-1H-pyrrolo[2,3-b]pyridin-5-yl)acrylamide]	≤ 100	≤ 100	100 to 1000
C=CC(=O)Nc1ccc2c(c1)c(/C=C/C1CCC(F)(F)CC1)cn2C [Compound 21, (E)-N-(3-(2-(4,4-Difluorocyclohexyl)vinyl)-1-methyl-1H-indol-5-yl)acrylamide]	100 to 1000	≤ 100	100 to 1000
C=CC(=O)Nc1ccc2c(c1)c(/C=C/c1ccc(Cl)cc1)cn2C [Compound 22, (E)-N-(3-(4-Chlorostyryl)-1-methyl-1H-indol-5-yl)acrylamide]	100 to 1000	100 to 1000	100 to 1000
C=CC(=O)Nc1ccc2c(c1)c(/C=C/c1ccc(F)cc1)cn2C [Compound 24, (E)-N-(3-(4-Fluorostyryl)-1-methyl-1H-indol-5-yl)acrylamide]	≤ 100	100 to 1000	100 to 1000
C=CC(=O)Nc1ccc2c(c1)c(/C=C/C1CCC(F)(F)CC1)cn2CC [Compound 25, (E)-N-(3-(2-(4,4-Difluorocyclohexyl)vinyl)-1-ethyl-1H-indol-5-yl)acrylamide]	100 to 1000	≤ 100	≤ 100
C=CC(=O)Nc1ccc2c(c1)c(/C=C/c1ccc(Cl)cc1)cn2C(C)C [Compound 28, (E)-N-(3-(4-Chlorostyryl)-1-isopropyl-1H-indol-5-yl)acrylamide]	≤ 100	100 to 1000	100 to 1000
C=CC(=O)Nc1cnc2c(c1)c(/C=C/C1CCC(F)(F)CC1)nn2C [Compound 30, (E)-N-(3-(2-(4,4-Difluorocyclohexyl)vinyl)-1-methyl-1H-pyrazolo[3,4-b]pyridin-5-yl)acrylamide]	≤ 100	≤ 100	100 to 1000
C=CC(=O)Nc1cnc2c(c1)c(/C=C/c1ccc(Cl)cc1)nn2C [Compound 31, (E)-N-(3-(4-Chlorostyryl)-1-methyl-1H-pyrazolo[3,4-b]pyridin-5-yl)acrylamide]	≤ 100	100 to 1000	≤ 100
C=CC(=O)Nc1cnc2c(c1)c(/C=C/c1ccc(F)cc1)cn2C [Compound 47, (E)-N-(3-(4-Fluorostyryl)-1-methyl-1H-pyrrolo[2,3-b]pyridin-5-yl)acrylamide]	≤ 100		≤ 100
C=CC(=O)Nc1cnc2c(c1)c(CCc1ccc(F)cc1)cn2C [Example 63, N-(3-(4-Fluorophenethyl)-1-methyl-1H-pyrrolo[2,3-b]pyridin-5-yl)acrylamide]	≤ 100	≤ 100	≤ 100
C=CC(=O)Nc1cnc2c(c1)c(/C=C/c1ccc(Cl)cc1)cn2C(F)F [Example 128, (E)-N-(3-(4-Chlorostyryl)-1-(difluoromethyl)-1H-pyrrolo[2,3-b]pyridin-5-yl)acrylamide]	100 to 1000		100 to 1000
C=CC(=O)Nc1cnc2c(c1)c(/C=C/C1CCC(F)(F)CC1)cn2C(F)F [Example 130, (E)-N-(3-(2-(4,4-Difluorocyclohexyl)vinyl)-1-(difluoromethyl)-1H-pyrrolo[2,3-b]pyridin-5-yl)acrylamide]		100 to 1000	100 to 1000

The next lines start with results.

IC50 [2] [nM]	IC50 [3] [nM]	SMILES	IC50 [1] [nM]
≤ 100	100 to 1000	C=CC(=O)Nc1cnc2c(c1)c(/C=C/c1ccc(Cl)cc1)cn2C [Compound 16, (E)-N-(3-(4-Chlorostyryl)-1-methyl-1H-pyrrolo[2,3-b]pyridin-5-yl)acrylamide]	≤ 100
≤ 100	100 to 1000	C=CC(=O)Nc1cnc2c(c1)c(-c1ccc(Cl)c(F)c1)cn2C [Example 87, N-(3-(4-Chloro-3-fluorophenyl)-1-methyl-1H-pyrrolo[2,3-b]pyridin-5-yl)acrylamide]	≤ 100
≤ 100	100 to 1000	C=CC(=O)Nc1cnc2c(c1)c(-c1ccc(CC)cc1)cn2C [Example 89, N-(3-(4-Ethylphenyl)-1-methyl-1H-pyrrolo[2,3-b]pyridin-5-yl)acrylamide]	≤ 100
≤ 100	≤ 100	C=CC(=O)Nc1cnc2c(c1)c(-c1ccc(F)c(C(F)(F)F)c1)cn2C [Example 92, N-(3-(4-Fluoro-3-(trifluoromethyl)phenyl)-1-methyl-1H-pyrrolo[2,3-b]pyridin-5-yl)acrylamide]	≤ 100
≤ 100	100 to 1000	C=CC(=O)Nc1cnc2c(c1)c(-c1ccc(C(C)C)cc1)cn2C [Example 93, N-(3-(4-Isopropylphenyl)-1-methyl-1H-pyrrolo[2,3-b]pyridin-5-yl)acrylamide]	≤ 100
≤ 100	100 to 1000	C=CC(=O)Nc1cnc2c(c1)c(-c1ccc(F)c(Cl)c1)cn2C [Example 97, N-(3-(3-Chloro-4-fluorophenyl)-1-methyl-1H-pyrrolo[2,3-b]pyridin-5-yl)acrylamide]	≤ 100
≤ 100	1000 to 10000	C=CC(=O)Nc1cnc2c(c1)c(-c1ccc(Cl)cc1)cn2C [Example 98, N-(3-(4-Chlorophenyl)-1-methyl-1H-pyrrolo[2,3-b]pyridin-5-yl)acrylamide]	≤ 100
	1000 to 10000	C=CC(=O)Nc1cnc2c(c1)c(-c1ccc(Cl)cc1)cn2C(F)F [Example 132, N-(3-(4-Chlorophenyl)-1-(difluoromethyl)-1H-pyrrolo[2,3-b]pyridin-5-yl)acrylamide]	100 to 1000

Source: patent US20250282735A1, “BICYCLE COMPOUNDS AS TEAD INHIBITOR” (DONG-A ST CO., LTD., priority 2022, published 2025)
